According to ChEMBL document CHEMBL5725642, “Inhibitors of human immunodeficiency virus replication” (2018):
Values joined by “and” are separate entries in the source; they are usually repeats but may differ in a detail not shown here. Identical values can stand only once.

experiment: Infectivity Assay: HIV cell culture assay¿MT-2 cells, 293T cells and the proviral DNA clone of NL4-3 virus were obtained from the NIH AIDS Research and Reference Reagent Program. MT-2 cells were propagated in RPMI 1640 media supplemented with 10% heat inactivated fetal bovine serum (FBS), 100 ug/ml penicillin G and up to 100 units/ml streptomycin. The 293T cells were propagated in DMEM media supplemented with 10% heat inactivated FBS, 100 ug/ml penicillin G and 100 ug/ml streptomycin. A recombinant NL4-3 proviral clone, in which a section of the nef gene was replaced with the Renilla luciferase gene, was used to make the reference virus used in these studies. The recombinant virus was prepared through transfection of the recombinant NL4-3 proviral clone into 293T cells using Transit-293 Transfection Reagent from Mirus Bio LLC (Madison, Wis.). Supernatent was harvested after 2-3 days after transfection, and the amount of virus present was titered in MT-2 cells using luciferase enzyme activity as a marker. Luciferase activity was quantitated using the EnduRen Live Cell Substrate from Promega (Madison, Wis.). Antiviral activities of compounds toward the recombinant virus were quantified by measuring luciferase activity in MT-2 cells infected for 4-5 days with the recombinant virus in the presence of serial dilutions of the compound.The 50% effective concentration (EC50) was calculated by using the exponential form of the median effect equation where (Fa)=1/[1+(ED50/drug conc.)m](Johnson V A, Byington R T. Infectivity Assay. In Techniques in HIV Research. ed. Aldovini A, Walker B D. 71-76. New York: Stockton Press. 1990).; format: cell-based

Row | Compound | EC50
1 | CN(C(=O)[C@@H](Cc1ccccc1)NC(=O)NS(=O)(=O)c1ccccc1)c1ccc2c(c1)OCO2 | 55 µM
2 | Cc1ccccc1S(=O)(=O)NC(=O)N[C@H](CCc1ccccc1)C(=O)N(C)c1ccc2c(c1)OCO2 | 55 µM
3 | CN(C(=O)[C@H](Cc1ccccc1)NC(=O)NS(=O)(=O)c1ccccc1)c1ccc2c(c1)OCO2 | 0.55 µM
4 | CN(C(=O)[C@H](Cc1ccccc1)NC(=O)NS(=O)(=O)c1ccccc1-c1cnn(C)c1)c1ccc2c(c1)OCO2 | 5.5 µM and 0.55 µM
5 | Cc1ccccc1S(=O)(=O)NC(=O)N[C@@H](CCc1ccccc1)C(=O)N(C)c1ccc2c(c1)OCO2 | 55 µM
